# Experimental data published in patent US9850283B2, “Macrocyclic inhibitors of the PD-1/PD-L1 and CD80(B7-1)/PD-L1 protein/protein interactions” (BRISTOL-MYERS SQUIBB COMPANY, priority 2013, dated 2017).
# Where two headings read alike, the source gives them in different places. Starred links: 1 amine or outer side, 2 acyl side, 3 side chain; linkers in the order of their positions; H or OH if unused. Positions of bridges follow the written chain, without caps; N, C: chain ends. Non-standard residues stand in square brackets, D forms with d. Residues, ends and D or L forms follow the SMILES beside them. ξ: configuration not given here. X3 = O=C([C@@H]1C[C@@H](Cc2ccc(F)cc2)CN1[*:1])[*:2]; Bta = N[C@@H](Cc1csc2ccccc12)C(=O)O; Hyp = O=C(O)[C@@H]1C[C@@H](O)CN1; NMeNle = CCCC[C@H](NC)C(=O)O; NMeA = CN[C@@H](C)C(=O)O; Dab = NCC[C@H](N)C(=O)O; Dap = NC[C@H](N)C(=O)O; ξP = O=C(O)C1CCCN1; Sar = CNCC(=O)O
# Assays:
# Human PD-L1/PD-1 = target: T1, Human PD-L1/PD-1 (Homo sapiens, UniProt Q9NZQ7); assay: HTRF PD-1-Ig/PD-L1-His binding assay (human PD-L1)
# T1 construct: made in house; host or cells: HEK293T
# T1 sequence (Q9NZQ7 with tags, fused parts or gaps): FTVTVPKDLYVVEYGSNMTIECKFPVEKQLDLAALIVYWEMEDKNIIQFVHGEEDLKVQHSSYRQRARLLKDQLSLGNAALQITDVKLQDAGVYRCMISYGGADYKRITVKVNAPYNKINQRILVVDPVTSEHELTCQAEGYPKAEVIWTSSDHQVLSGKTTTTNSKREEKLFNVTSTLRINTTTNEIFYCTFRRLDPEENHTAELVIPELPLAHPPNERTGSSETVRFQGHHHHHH
# Summary of the method: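 Steps: truncated PD-1-Ig and PD-L1-His fusions are incubated in dPBS containing 0.1% (w/v) BSA and 0.05% (v/v) Tween-20. Detection antibodies are then added (Eu cryptate anti-Ig at 1 nM final, APC anti-His at 20 nM final), and time-resolved FRET is measured.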
# [1] = target: T2, LK35.2-hPD-L1 cells / PE-labeled PD-1-Ig (Homo sapiens, UniProt Q9NZQ7); assay: LK35.2-hPD-L1 cell binding high-content screening assay; format: cell-based
# T2 construct: expressed in transfected cells; host or cells: LK35.2 mouse B cell line
# T2 sequence (Q9NZQ7 19-290): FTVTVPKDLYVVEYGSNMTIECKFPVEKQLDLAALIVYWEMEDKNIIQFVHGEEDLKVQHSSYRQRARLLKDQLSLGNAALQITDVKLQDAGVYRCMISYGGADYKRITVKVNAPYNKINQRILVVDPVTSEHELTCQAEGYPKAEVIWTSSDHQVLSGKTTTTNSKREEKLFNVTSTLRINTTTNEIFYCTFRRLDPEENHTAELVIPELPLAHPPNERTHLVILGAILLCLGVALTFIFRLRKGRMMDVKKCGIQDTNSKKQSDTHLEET
# Summary of the method: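 Binding of PE-conjugated human PD-1-Ig (1 nM final) to human PD-L1 stably expressed on a mouse B-cell line (LK35.2) was measured by high-content imaging after washes. Compound and labeled PD-1-Ig were co-incubated 1 h at 37 °C with cells in RPMI/10% FCS.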
# CMV-specific T cells = CMV-specific T cells (Homo sapiens, UniProt Q9NZQ7); assay: CMV-specific T cell function assay (IFNγ secretion, ELISA); format: cell-based
# CMV-specific T cells, sequence (Q9NZQ7 19-290): as above
# Protocol: CMV-specific T Cell Function Assay. […] AIM-V medium (Life Technologies, Grand Island, N.Y.) supplemented with 10% heat-inactivated fetal bovine serum (FBS, Sigma, St Louis, Mo.) was used at a total volume of 200 µL/well in triplicate. The cells were cultured for 4 days at 37° C., 5% CO2 at which time culture supernatant was harvested for determination of secreted IFNγ by ELISA (OptEIA hIFNγ ELISA Kit, BD Biosciences, San Jose, Calif.).
# Hu PD-L1/PD-1 = Hu PD-L1/PD-1 (Homo sapiens, UniProt Q9NZQ7); assay: Cell binding assay Hu PD-L1/PD-1 (Tables 11-13, cell line not given); format: cell-based
# Hu PD-L1/PD-1, sequence (Q9NZQ7 19-290): as above
# Protocol: The ability of the macrocyclic peptides of the present disclosure to bind to Jurkat, mouse B cell line (LK35.2), and a human lung adenocarcinoma cell line (L2987) was investigated. Jurkat-PD-1 Cell Binding Assay. Phycoerythrin (PE) was covalently linked to the Ig epitope tag of human PD-L1-Ig and fluorescently-labeled PD-L1-Ig was used for binding studies with a Jurkat cell line over-expressing human PD-1 (Jurkat-PD-1). […] Cells were washed 3× in dPBS. Cells were resuspended in 200 μl of dPBS and binding was measured by flow cytometry. LK35.2-hPD-L1 Cell Binding Assay. Phycoerythrin (PE) was covalently linked to the Ig eptitope tag of human PD-1-Ig and fluorescently-labeled PD-1-Ig was used for binding studies with a mouse B cell line (LK35.2) stably over-expressing human PD-L1 (LK35.2-hPD-L1). Briefly, […] LK35.2-hPD-L1 cells were pre-incubated with inhibitor for 15 m in a 30 μl volume of RPMI supplemented with 2% fetal calf serum. 20 μl of PE-labeled PD-1-Ig (2 nM final), diluted in RPMI supplemented with 2% fetal calf serum, was dispensed on top of cells and inhibitor and binding was allowed to take place for 1 h at room temperature. Cells were washed 3× in dPBS. Cells were resuspended in 200 μl of dPBS and binding was measured by flow cytometry. L2987 Cellomics Cell Binding Assay. Phycoerythrin (PE) was covalently linked to the Ig eptitope tag of human PD-1-Ig and fluorescently-labeled PD-1-Ig was used for binding studies with a human lung adenocarcinoma cell line (L2987) which naturally expresses PD-L1. […] The following day, inhibitors were diluted in serum-free DMEM and 25 μl was dispensed on top of cells. […] Samples were incubated for 1 h at 37° C. followed by 2 washes in dPBS and fixation for 30 m with 4% paraformaldehyde. Samples were further washed 2× in dPBS. Hoechst (final 1 μg/ml) was added to final wash to stain nuclei. Plates were processed using a Cellomics […]®.
# [2] = value given instead of cluster, read-out: HTRF IC50 value
# [3] = cell binding assay, cell line not given, value given instead of cluster, read-out: CBA IC50 value
# [4] = value given instead of cluster, read-out: CMV Recall EC50 value
# [5] = numeric value, read-out: CMV Recall EC50 values
# [6] = Table 8, Compound No. 1 variant macrocyclic peptides, read-out: HTRF Human PD-L1/PD-1 Binding Assay IC50
smiles,measurement,setting,value
CCCC[C@H]1C(=O)N(C)[C@@H](CCCC)C(=O)N[C@@H](CO)C(=O)N[C@H](C(=O)NCC(N)=O)CSCC(=O)N[C@@H](Cc2ccc(O)cc2)C(=O)N(C)[C@@H](C)C(=O)N[C@@H](CC(=O)O)C(=O)N2CCC[C@H]2C(=O)N[C@@H](CO)C(=O)N[C@@H](CO)C(=O)N2C[C@H](O)C[C@H]2C(=O)N[C@@H](Cc2c[nH]c3ccccc23)C(=O)N[C@@H](CO)C(=O)N[C@@H](Cc2c[nH]c3ccccc23)C(=O)N1C [Example 5117] ({CH2CO}-Y[NMeA]DPSS[Hyp]WSW[NMeNle][NMeNle]SCG-NH2; thioether N-14),IC50,Human PD-L1/PD-1; [2],5.33 nM
same,IC50,[1]; [3],6.75 nM
same,EC50,CMV-specific T cells; [4],103 nM
CCCC[C@H]1C(=O)N[C@@H](CCCNC(=N)N)C(=O)NC(C(=O)NCC(N)=O)CSCC(=O)N[C@@H](Cc2ccc(O)cc2)C(=O)N(C)[C@@H](C)C(=O)N[C@@H](CC(N)=O)C(=O)N2CCC[C@H]2C(=O)N[C@@H](Cc2cnc[nH]2)C(=O)N[C@@H](CC(C)C)C(=O)N2C[C@H](O)C[C@H]2C(=O)N[C@@H](Cc2c[nH]c3ccccc23)C(=O)N[C@@H](CO)C(=O)N[C@@H](Cc2c[nH]c3ccccc23)C(=O)N(C)[C@@H](C)C(=O)N1C (some centres unmarked) [Example 9057],IC50,"Human PD-L1/PD-1; numeric value, read-out: HTRF IC50 values",14.9 nM
same,IC50,"[1]; cell binding assay, cell line not given, numeric value, read-out: CBA IC50 values",19.5 nM
same,EC50,CMV-specific T cells; [5],112 nM
CCCC[C@H]1C(=O)N(C)[C@@H](CCCC)C(=O)N[C@@H](CN)C(=O)N[C@H](C(=O)NCC(N)=O)CSCC(=O)N[C@@H](Cc2ccc(O)cc2)C(=O)N(C)[C@@H](C)C(=O)N[C@@H](CC(N)=O)C(=O)N2CCC[C@H]2C(=O)N[C@@H](Cc2cnc[nH]2)C(=O)N[C@@H](CCC(=O)O)C(=O)N2C[C@H](O)C[C@H]2C(=O)N[C@@H](Cc2c[nH]c3ccccc23)C(=O)N[C@@H](CO)C(=O)N[C@@H](Cc2c[nH]c3ccccc23)C(=O)N1C [Example 5062] ({CH2CO}-Y[NMeA]NPHE[Hyp]WSW[NMeNle][NMeNle][Dap]CG-NH2; thioether N-14),IC50,Human PD-L1/PD-1; [2],5.15 nM
same,IC50,[1]; [3],2.28 nM
same,EC50,CMV-specific T cells; [4],14.5 nM
CCCC[C@H]1C(=O)N(C)[C@@H](CCCC)C(=O)N[C@@H](CC(C)C)C(=O)N[C@H](C(=O)NCC(N)=O)CSCC(=O)N[C@@H](Cc2ccc(O)cc2)C(=O)N(C)[C@@H](C)C(=O)N[C@@H](CC(N)=O)C(=O)N2CCC[C@H]2C(=O)N[C@@H](CN)C(=O)N[C@@H](CCC(=O)O)C(=O)N2C[C@H](O)C[C@H]2C(=O)N[C@@H](Cc2c[nH]c3ccccc23)C(=O)N[C@@H](CO)C(=O)N[C@@H](Cc2c[nH]c3ccccc23)C(=O)N1C [Example 5071] ({CH2CO}-Y[NMeA]NP[Dap]E[Hyp]WSW[NMeNle][NMeNle]LCG-NH2; thioether N-14),IC50,Human PD-L1/PD-1; [2],10.5 nM
same,IC50,[1]; [3],1.01 nM
same,EC50,CMV-specific T cells; [4],14 nM
CCCC[C@H]1C(=O)N(C)[C@@H](CCCC)C(=O)N[C@@H](CN)C(=O)N[C@H](C(=O)NCC(N)=O)CSCC(=O)N[C@@H](Cc2ccc(O)cc2)C(=O)N(C)[C@@H](C)C(=O)N[C@@H](CC(=O)O)C(=O)N2CCC[C@H]2C(=O)N[C@@H](CN)C(=O)N[C@@H](CC(C)C)C(=O)N2C[C@H](O)C[C@H]2C(=O)N[C@@H](Cc2c[nH]c3ccccc23)C(=O)N[C@@H](CO)C(=O)N[C@@H](Cc2csc3ccccc23)C(=O)N1C [Example 1163] ({CH2CO}-Y[NMeA]DP[Dap]L[Hyp]WS[Bta][NMeNle][NMeNle][Dap]CG-NH2; thioether N-14),IC50,Human PD-L1/PD-1; read-out: HTRF IC50 value,6.24 nM
same,IC50,"[1]; cell line of CBA not given (LK35.2-hPD-L1 or 293T-hPD-L1), read-out: CBA IC50 value",4.04 nM
same,EC50,CMV-specific T cells; read-out: CMV Recall EC50 value,2.93 nM
CCCC[C@H]1C(=O)N(C)[C@@H](CCCC)C(=O)N[C@@H](CCN)C(=O)N[C@H](C(=O)NCC(N)=O)CSCC(=O)N[C@@H](Cc2ccc(O)cc2)C(=O)N(C)[C@@H](C)C(=O)N[C@@H](CC(N)=O)C(=O)N2CCC[C@H]2C(=O)N[C@@H](Cc2c[nH]cn2)C(=O)N[C@@H](CCC(=O)O)C(=O)N2C[C@H](Cc3ccc(F)cc3)C[C@H]2C(=O)N[C@@H](Cc2c[nH]c3ccccc23)C(=O)N[C@@H](CCN)C(=O)N[C@@H](Cc2c[nH]c3ccccc23)C(=O)N1C [Example 13011] ({CH2CO}-Y[NMeA]NPHE[X3]W[Dab]W[NMeNle][NMeNle][Dab]CG-NH2; thioether N-14),EC50,CMV-specific T cells; [5],38.3 nM
CCCC[C@H]1C(=O)N(C)[C@@H](CCCC)C(=O)N[C@@H](CCCNC(=N)N)C(=O)N[C@H](C(=O)NCC(N)=O)CSCC(=O)N[C@@H](Cc2ccccc2)C(=O)N(C)[C@@H](C)C(=O)N[C@@H](CC(N)=O)C(=O)N2CCCC2C(=O)N[C@@H](Cc2cnc[nH]2)C(=O)N[C@@H](CC(C)C)C(=O)N(C)[C@@H](C)C(=O)N[C@@H](Cc2c[nH]c3ccccc23)C(=O)N[C@@H](CO)C(=O)N[C@@H](Cc2c[nH]c3ccccc23)C(=O)N1C (some centres unmarked) [Compound No. 13] ({CH2CO}-F[NMeA]N[ξP]HL[NMeA]WSW[NMeNle][NMeNle]RCG-NH2; thioether N-14),IC50,Hu PD-L1/PD-1,35 nM
same,IC50,Human PD-L1/PD-1; [6],16 nM
CCCC[C@H]1C(=O)N(C)[C@@H](CCCC)C(=O)N[C@@H](C)C(=O)N[C@H](C(=O)NCC(N)=O)CSCC(=O)N[C@@H](Cc2ccccc2)C(=O)N(C)[C@@H](C)C(=O)N[C@@H](CC(N)=O)C(=O)N2CCCC2C(=O)N[C@@H](Cc2cnc[nH]2)C(=O)N[C@@H](CC(C)C)C(=O)N(C)CC(=O)N[C@@H](Cc2c[nH]c3ccccc23)C(=O)N[C@@H](CO)C(=O)N[C@@H](Cc2c[nH]c3ccccc23)C(=O)N1C (some centres unmarked) [Compound No. 22],IC50,Hu PD-L1/PD-1,28 nM
same,IC50,Human PD-L1/PD-1; [6],3 nM
CCCC[C@H]1C(=O)N(C)[C@@H](CCCC)C(=O)N[C@@H](CCCNC(=N)N)C(=O)N[C@H](C(=O)NCC(N)=O)CSCC(=O)N[C@@H](Cc2ccccc2)C(=O)N(C)[C@@H](C)C(=O)N[C@@H](CC(N)=O)C(=O)N2CCC[C@H]2C(=O)N[C@@H](Cc2c[nH]cn2)C(=O)N[C@@H](CC(C)C)C(=O)N[C@@H](CCN)C(=O)N[C@@H](Cc2c[nH]c3ccccc23)C(=O)N[C@@H](CO)C(=O)N[C@@H](Cc2c[nH]c3ccccc23)C(=O)N1C [Compound No. 52],IC50,Hu PD-L1/PD-1,108 nM
same,IC50,Human PD-L1/PD-1; [6],24 nM
"CCCC[C@@H]1NC(=O)[C@H](Cc2ccccc2)N(C)C(=O)[C@H](Cc2ccccc2)NC(=O)CSC[C@@H](C(=O)NCC(N)=O)NC(=O)[C@H](CC(C)C)NC(=O)[C@H](Cc2ccc(O)cc2)NC(=O)[C@H](Cc2c[nH]c3ccccc23)NC(=O)CN(C)C(=O)[C@H](Cc2ccc(O)cc2)NC(=O)[C@H](Cc2ccccc2)N(C)C(=O)[C@H](C(C)C)NC(=O)[C@H](CC(=O)O)NC(=O)CN(C)C1=O [Compound No. 76] (HELM PEPTIDE1{[O=C(C[*:3])[*:2]].F.[meF].[Nle].[Sar].D.V.[meF].Y.[Sar].W.Y.L.C.G.[am]}$PEPTIDE1,PEPTIDE1,1:R3-14:R3$$$V2.0)",IC50,"Hu PD-L1/PD-1; Table 13, Compound No. 71 series",> 10000 nM
same,IC50,"Human PD-L1/PD-1; Table 9, Compound No. 71 variant macrocyclic peptides, read-out: HTRF Human PD-L1/PD-1 Binding Assay IC50",> 10000 nM
CCCC[C@H]1C(=O)N(C)[C@@H](CCCC)C(=O)N[C@@H](CCCNC(=N)N)C(=O)N[C@H](C(=O)NCC(N)=O)CSCC(=O)N[C@@H](Cc2ccccc2)C(=O)N(C)[C@@H](C)C(=O)N[C@@H](CC(N)=O)C(=O)N2CCCC2C(=O)N[C@@H](C)C(=O)N[C@@H](CC(C)C)C(=O)N(C)CC(=O)N[C@@H](Cc2c[nH]c3ccccc23)C(=O)N[C@@H](CO)C(=O)N[C@@H](Cc2c[nH]c3ccccc23)C(=O)N1C (some centres unmarked) [Compound No. 10] ({CH2CO}-F[NMeA]N[ξP]AL[Sar]WSW[NMeNle][NMeNle]RCG-NH2; thioether N-14),IC50,Hu PD-L1/PD-1,82 nM
same,IC50,Human PD-L1/PD-1; [6],16 nM
